Experimental data from US7202046B2, “Use of a fluorescent protein for detecting interaction between a target protein and its ligand” (priority 1997, dated 2007).
pKd, pKi: −log10 of the molar value. “And” between values parts separate entries of the source, which are not always exact repeats. Equal entries are not always repeated. Where two headings read alike, the source gives them in different places.

What was measured:
[1] = tested on: fluorescent receptor NK2R-RF1; experiment: Displacement of 3H SR 48968 binding (competition experiment), HEK 293 cells expressing NK2R-RF1; set-up: species or system rat; conditions: read-out: KI, displacement of 3H SR 48968, 1 nM 3H SR 48968, 25,000 cells, 4° C.
Method: Each 500 μl sample contains 25,000 cells, 1 nM 3HSR 48968 and a non-radioactive ligand at various concentrations (from 1 nM to 10 μM). The incubation is carried out for one hour at 4° C. Filtration is carried out at the end of incubation, as described in 3b).

NK2R-RF1 receptor = experiment: Fluorescence energy transfer between fluorescent ligand and NK2R-RF1 on HEK293 cells in suspension; assay type: binding, rat; conditions: for pKd: 0 to 256 nM ligand, read-out: affinity value KD from amplitude of the fluorescence signal; for pKd / inhibition of real-time energy transfer between 100 nM NKA BO I and NK2R-RF1: 10^6 cells/ml; for pKd / detection of receptor-fluorescent ligand interaction signal (energy transfer) / inhibition of real-time energy transfer between 100 nM NKA BO I and NK2R-RF1: emission 510 nm; for reversal of the energy transfer signal by excess non-labeled ligand, at equilibrium: 1–10 μM non-labeled ligand after 100 nM NKA BO I; for detection of receptor-fluorescent ligand interaction signal (energy transfer): 100 nM fluorescent ligand, real time; for inhibition of real-time energy transfer between 100 nM NKA BO I and NK2R-RF1: 20 μM non-fluorescent ligand
Method: The fluorescence experiments are carried out in a 1 ml tank fitted with a magnetic stirring system and placed in a Fluorolog spectrofluorimeter (SPEX) equipped with a 450 W xenon lamp (Osram) and Spex 1680 0.22 m (excitation) and Spex 1681 0.22 m (emission) monochromators. The cells or the membrane fragments are suspended in physiological buffer: 10 mM Hepes, 137.5 mM NaCl, 1.25 mM MgCl2, 1.25 mM CaCl2, 6 mM KCl, 5.6 mM glucose, 0.4 mM NaH2PO4, 0.1% (w/v) BSA, pH 7.4.
The HEK293 cells expressing the NK2R-RF1 are suspended at a concentration of 1,000,000 cells/ml in Hepes physiological buffer (10 mM Hepes, 137.5 mM NaCl, 1.25 mM MgCl2, 1.25 mM CaCl2, 6 mM KCl, 5.6 mM glucose, 0.4 mM NaH2PO4, 0.1% (w/v) BSA, pH 7,4). The cells are then placed in a fluorescence tank at a concentration which can range from 100,000 to 1,000,000 cells/ml. […] The emission spectrum of the solution is again recorded. […] The appearance of a peak at 550–560 nm during the addition of the fluorescent ligand and a reduction in its intensity during the addition of non-labeled ligand are also detected. […] The signal is reversible by means of addition of a pharmacological agent capable of inhibiting the interaction between the ligand and its receptor.
The same recordings can be made in real time. For this, the excitation wavelength is set at 460 nm and the emission wavelength is set at 510 nm. […] The final value of the fluorescence intensity can be higher than the initial value when the absorption of the fluorescent ligand contributes to the signal.

NK2R-RF1 = experiment: Release of intracellular calcium (FURA 2), cells expressing pCEP4-NK2R-RF1; assay type: cell-based, rat; conditions: for inhibition of the NKA-elicited calcium response: antagonist (5 μM cyclopeptide) then 10 nM NKA
Method: (§1) The fluorescent calcium-chelating agent, FURA 2 acetyl methyl ester (Molecular Probes), dissolved in DMSO is diluted to a concentration of 3 μM in 10 mM Hepes, 137.5 mM NaCl, 1.25 mM MgCl2, 1.25 mM CaCl2, 6 mM KCl, 5.6 mM glucose, 0.4 mM NaH2PO4, 0.1% (w/v) BSA, pH 7.4 buffer. The cell culture medium is aspirated and then replaced with 7 to 10 ml of FURA 2 AM solution. The cells are placed in the CO2 incubator for 45 min. The medium is then aspirated, replaced with FURA-free Hepes buffer and the cells are replaced in the CO2 incubator for a further 15 min. The buffer is aspirated and the cells are then collected after they have been detached from the dish with a 5 mM EDTA, PBS solution for 5 min. After centrifugation at 1000×g for 5 min., the cell pellet obtained is re-suspended at a rate of 1×10^6 cells/ml in Hepes buffer.
(§2) The calcium-release measurements are carried out at 37° C., in a spectrofluorimetiy tank containing a magnetic stirrer bar. The excitation wavelength is set at […] and the emission wavelength is set at 510 nm.

wild-type NK2R receptor [2] = target: T1, wild-type NK2R receptor (Rattus norvegicus, UniProt P16610); experiment: Release of intracellular calcium (FURA 2), cells expressing pCEP4-NK2R WT; assay type: cell-based; conditions: for inhibition of the NKA-elicited calcium response: antagonist (5 μM cyclopeptide) then 10 nM NKA
T1 construct: expressed in transfected cells; host or cells: HEK 293 cells, construct pCEP4-NK2R
T1 sequence (P16610 1-390): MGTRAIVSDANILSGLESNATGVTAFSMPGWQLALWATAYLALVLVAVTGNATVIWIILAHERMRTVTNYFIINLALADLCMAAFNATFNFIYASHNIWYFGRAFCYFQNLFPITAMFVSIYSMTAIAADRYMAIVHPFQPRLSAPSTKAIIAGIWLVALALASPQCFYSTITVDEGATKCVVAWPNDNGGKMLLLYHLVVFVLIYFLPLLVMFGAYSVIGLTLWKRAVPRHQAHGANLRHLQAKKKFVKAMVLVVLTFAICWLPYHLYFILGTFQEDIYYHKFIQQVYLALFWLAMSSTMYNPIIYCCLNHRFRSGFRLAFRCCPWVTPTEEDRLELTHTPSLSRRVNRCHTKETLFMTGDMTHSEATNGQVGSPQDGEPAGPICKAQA
Method: as §1, §2

[3] = target: T2, fluorescent receptor NK2R-RF1 (Rattus norvegicus, UniProt P16610); experiment: Saturation binding of 3H SR 48968 to whole cells expressing NK2R-RF1 (EGFP fused at N-terminal); conditions: two experiments
T2 construct: fused on or other part: EGFP (from pEGFP C3-1) fused at the receptor's N-terminus, preceded by the signal peptide of the hen alpha7 nicotinic receptor subunit; Both are tag or targeting parts and are not part of the key
Method: (§3) After incubation for 30 min. at room temperature, the samples are filtered through GF/C filters (Whatmann) pre-treated in 1% powdered milk in PBS (2.7 mM KCl, 1.47 mM KH2PO4, […], 8.06 mM Na2HPO4), rinsed twice with PBS (4 ml) and then counted in a scintillation cocktail.
(§4) Each 500 μl sample contains 25,000 cells, and the fraction of bound ligand is less than 10% of the amount added to each tube. Filtration is carried out at the end of incubation, as described above.

wild-type NK2R receptor [4] = target: T1, wild-type NK2R receptor; experiment: Saturation binding of 3H SR 48968 to whole cells expressing wild-type NK2R; conditions: two experiments
Method: as §3, §4

[5] = tested on: non-transfected HEK 293 cells; experiment: Release of intracellular calcium (FURA 2), non-transfected cells; assay type: cell-based
Method: as §1, §2

[6] = saturation curve, 25,000 cells, 4° C., 1 h 30 min, read-out: affinity value (KD)

Q: Which results are given for `CSCC[C@H](NC(=O)[C@H](CC(C)C)NC(=O)CNC(=O)[C@@H](NC(=O)[C@H](Cc1ccccc1)NC(=O)[C@H](CO)NC(=O)[C@H](CC(=O)O)NC(=O)[C@@H](NC(=O)[C@H](CCCCN)NC(=O)[C@H](Cc1c[nH]cn1)NCC(=O)NCCNC(=O)CCc1ccc2n1[B-](F)(F)[N+]1=C(c3ccccc3)C=C(c3ccccc3)C1=C2)[C@@H](C)O)C(C)C)C(N)=O` [NKA BO I]?
A: pKi [1]: 7.80; pKi ([1]; listed as NKA-BO I): 7.79; pKd (NK2R-RF1 receptor; listed as NKA-BO I): 7.62; pKd (NK2R-RF1 receptor): 7.52 to 7.70; change of EGFP fluorescence (510 nm) on addition of fluorescent ligand, at equilibrium (NK2R-RF1 receptor; 100 nM ligand, excitation 460 nm): extinction of the fluorescence of EGFP

Q: What does the source list for `CC(=O)NC1(c2ccccc2)CCN(CC[C@H](CN(C)C(=O)c2ccccc2)c2ccc(Cl)c(Cl)c2)CC1` [SR 48968]?
A: inhibition of the NKA-elicited calcium response (NK2R-RF1): inhibited; inhibition of the NKA-elicited calcium response (wild-type NK2R receptor [2]): inhibited; reversal of the energy transfer signal by excess non-labeled ligand, at equilibrium (NK2R-RF1 receptor): return to the initial fluorescence

Q: How did the pKd [3, 6] turn out when `CC(=O)NC1(c2ccccc2)CCN(CC[C@H](CN(C)C(=O)c2ccccc2)c2ccc(Cl)c(Cl)c2)CC1` [^3H SR 48968] was run?
A: Its pKd is 9.10 and 9.04.

Q: What about the “maximum binding (B max) value” ([3]; saturation curve) of the same compound?
A: Its value is 0.075 pMol/25,000 cells and 0.088 pMol/25,000 cells.

Q: And the pKd (wild-type NK2R receptor [4]; [6])?
A: Its pKd is 8.98 and 9.11.

Q: And the “maximum binding value (B max)” value (wild-type NK2R receptor [4]; saturation curve)?
A: Its value is 0.1 pMol/25,000 cells.

Q: For “NKA Eos: eosin derivative of NKA (eosin-5-iodoacetamide)”, which “detection of receptor-fluorescent ligand interaction signal (energy transfer)” value (NK2R-RF1 receptor) is on record?
A: Its value is “detection of an NK2R-RF1 receptor-fluorescent ligand interaction signal”.

Q: How did the “detection of receptor-fluorescent ligand interaction signal (energy transfer)” value (NK2R-RF1 receptor) turn out when “NKA TR: neurokinin A labeled with sulforhodamine 101 acid chloride (Texas Red)” was run?
A: The value was “detection of an NK2R-RF1 receptor-fluorescent ligand interaction signal”.

Q: Which results are given for “cyclo(-Gln-Trp-Phe-Gly-Leu-Met) (QWFGLM; cyclic; printed: Gln-Trp-Phe-Gly-Leu-Met) [NK2R antagonist cyclopeptide (Bachem)]”?
A: inhibition of the NKA-elicited calcium response (NK2R-RF1): inhibited; inhibition of the NKA-elicited calcium response (wild-type NK2R receptor [2]): inhibited; inhibition of real-time energy transfer between 100 nM NKA BO I and NK2R-RF1 (NK2R-RF1 receptor): inhibition; reversal of the energy transfer signal by excess non-labeled ligand, at equilibrium (NK2R-RF1 receptor): return to the initial fluorescence

Q: With neurokinin A [NKA] as the compound, how does the pKi [1] read?
A: The pKi was 8.68.

Q: What about the “calcium release response elicited” value (NK2R-RF1; 10 nM NKA, 37° C.) of the same compound?
A: Its value is “elicited”.

Q: What about the “calcium release response elicited” value (wild-type NK2R receptor [2]; 10 nM NKA, 37° C.) of the same compound?
A: Its value is “elicited”.

Q: What about the “inhibition of real-time energy transfer between 100 nM NKA BO I and NK2R-RF1” value (NK2R-RF1 receptor) of the same compound?
A: Its value is “inhibition”.

Q: And the “reversal of the energy transfer signal by excess non-labeled ligand, at equilibrium” value (NK2R-RF1 receptor)?
A: Its value is “return to the initial fluorescence”.

Q: And the “effect of non-fluorescent ligand alone on the fluorescence emission spectrum” value (NK2R-RF1 receptor; cells expressing NK2R-RF1, no fluorescent ligand)?
A: Its value is “has no effect on the fluorescence emission spectrum”.

Q: And the calcium release response [5]?
A: The calcium release response was “does not elicit any response”.
